# In patent US6727277B1, “Compounds affecting cholesterol absorption” (Kansas State University Research Foundation, priority 2002, dated 2004):
# pIC50: −log10 of the molar value.
# Columns and labels:
# [1] = system: lymphatic absorption of cholesterol; experiment: Lymphatic absorption of 14C-cholesterol in lymph-cannulated rats infused with lipid emulsion; format: in vivo, rat
# Description: (§1) Ten male Sprague-Dawley rats (Harlan Sprague Dawley, Inc., Indianapolis, Ind.) weighing 274.3±7.8 grams were housed individually in plastic cages in an environmentally controlled room of illumination (12:12-h light/dark cycle with the dark period from 0330 to 1530), humidity (60-70%), and temperature (22-25° C.) throughout the study. Rats had free access to deionized water and a nutritionally adequate diet (Table 1) containing soybean oil as the fat source and egg white as the protein source. The diet was formulated according to AIN-93G recommendations (In: Trace Elements in Laboratory Rodents (Watson, R. R., ed.), pp. 3-37. CRC Press, Boca Raton, Fla.). Animals were cared for in an animal care facility accredited by the American Association for the Accreditation of Laboratory Animal Care. Rats were maintained in accordance with the policies and guidelines for animal care and use procedures of the Kansas State University Institutional Animal Care and Use Committee.
# At 6 wk, rats were starved overnight for 17 h but allowed water ad libitum prior to the surgical placement of a lymph cannula and duodenal infusion catheter. The mesenteric lymph duct was cannulated as described in Koo et al., J. Nutr. 131: 717-722 (2001). Briefly, while rats were under anesthesia (2.0% halothane in 2.0 L O2/min delivered via a halothane vaporizer), a midline abdominal incision was made. […] The cannula was fixed in place with ethyl cyanoacrylate glue (Elmer's Products, Columbus, Ohio) and externalized through the right flank. An indwelling infusion catheter (Silastic® laboratory tubing, i.d. 1.0 mm, o.d. 2.2 mm; Dow Coming, Midland, Mich.) was introduced via the gastric fundus into the upper duodenum and secured in place with a purse-string suture (4-0 Silk, Ethicon, Somerville, N.J.) around the fundic incision. The infusion catheter was exteriorized alongside the lymph cannula. After the abdominal incision was closed, the rats were placed in restraining cages and housed in a recovery chamber at 30° C. for postoperative recovery for 22-24 h. During the recovery period, rats were infused continuously with glucose in phosphate buffered saline (PBS) (in mmol/L: 277 glucose, 6.75 Na2HPO4, 16.5 NaH2PO4, 115 NaCl, and 5 KCl; pH 6.7) v infusion catheter at 3.0 mL/h by a syringe pump (Harvard Apparatus, Model 935, South Natick, Mass.) to ensure adequate hydration and nutritional status of the animals.
# After postoperative recovery, each rat was infused with a lipid emulsion at 3 mL/h for 8 h via the duodenal catheter in subdued light. The lipid emulsion consisted of 451.8 μmol triolein (95%, Sigma Chemical, St. Louis, Mo.), 33.3 kBq [4-^14C]-cholesterol (^14C-CH; specific activity, 1.85 GBq/mmol, American Radiolabeled Chemicals, St. Louis, Mo.), 20.7 μmol cholesterol, 3.1 μmol α-tocopherol (all-rac-dl-α-tocopherol, 97%, Aldrich Chemical, Milwaukee, Wis.) as an antioxidant, and 396.0 μmol sodium taurocholate (Sigma Chemical, St. Louis, Mo.) in 24 mL of PBS buffer, pH 6.5. For half of the rats, the lipid emulsion contained 114.9 μmol compound 1 (41.9 mg). Lipid emulsion was prepared under a gentle N2 stream and subdued light for 55 min using a microprocessor-controlled ultrasonicator equipped with a microtip (XL-2020 Ultrasonic Liquid Processor, Misonix, Farmingdale, N.Y.).
# (§2) During the duodenal infusion of lipid emulsion, lymph samples were collected hourly in preweighed ice-chilled centrifuge tubes containing 4 mg Na2-EDTA and 30 μg n-propyl gallate (Sigma Chemical, St. Louis, Mo.) as antioxidants. A portion of each lymph sample (100 μL) was mixed with scintillation liquid (ScintiVerse; Fisher Scientific, Fair Lawn, N.J.) and counted by scintillation spectrometry (Beckman LS-6500; Beckman Instruments, Fullerton, Calif.). The total ^14C-radioactivity appearing in hourly lymph volume (the hourly rates of ^14C-CH absorption) was expressed as a percentage of the total radioactivity infused (% dose). All samples were ice chilled and handled in subdued light. […]
# [2] = system: lymphatic absorption of oleic acid; experiment: Lymphatic absorption of oleic acid (triolein) in lymph-cannulated rats, fatty acid analysis of lymph; format: in vivo, rat
# Description: as §1, with “Animals were cared for in an animal care facility accredited by the American Association for the Accreditation of Laboratory Animal Care. Rats were maintained in accordance with the policies and guidelines for animal care and use procedures of the Kansas State University Institutional Animal Care and Use Committee.” left out
# as §2, with “dose).” for “dose). All samples were ice chilled and handled in subdued light.”
# [3] = system: Sprague-Dawley rats; experiment: Observation of behaviour and visual examination of organs of infused rats; format: in vivo, rat
# From the text: Rats were sacrificed at the day end of the infusion, and the intestine and other organs were dissected and visually examined.
# [4] = system: cholesterol ester transfer protein (CETP); experiment: CETP activity, crude CETP preparation derived from hamster plasma; format: biochemical; conditions: in vitro
# Description: The inhibitory effect of compound 1 on the activity of cholesterol ester transfer protein (CETP) was measured, using a crude CETP preparation derived from hamster plasma.
# [5] = target: T1, cholesterol ester transfer protein (CETP) (Homo sapiens, UniProt P11597); experiment: Inhibition of CETP, purified CETP preparation; format: biochemical; conditions: FIG. 3, FIG. 4
# T1 sequence (P11597 18-493): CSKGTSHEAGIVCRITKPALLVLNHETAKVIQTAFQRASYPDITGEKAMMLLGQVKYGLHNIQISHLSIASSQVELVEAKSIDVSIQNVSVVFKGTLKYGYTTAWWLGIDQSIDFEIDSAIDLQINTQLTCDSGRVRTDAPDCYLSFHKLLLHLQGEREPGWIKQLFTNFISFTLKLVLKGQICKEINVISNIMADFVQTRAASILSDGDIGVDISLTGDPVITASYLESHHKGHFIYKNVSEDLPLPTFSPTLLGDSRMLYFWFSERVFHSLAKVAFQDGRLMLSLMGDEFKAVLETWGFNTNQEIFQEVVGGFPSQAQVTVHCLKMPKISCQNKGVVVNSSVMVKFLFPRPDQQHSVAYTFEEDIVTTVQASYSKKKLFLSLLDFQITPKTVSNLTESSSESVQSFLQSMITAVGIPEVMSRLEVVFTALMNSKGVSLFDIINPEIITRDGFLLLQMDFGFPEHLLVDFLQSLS
# Description: The effect of compound 24 on inhibition of CETP was tested using a purified CETP preparation. CETP was purified and assayed according to procedures described in Tomada, H.; Tabata, N.; Shinose, M.; Takahashi Y.; Woodruff, H. B.; Omura, S. J. Antibiotics, 52: 1101-1107 (1999).
# [6] = rats, 8 h duodenal infusion of lipid emulsion with 114.9 μmol (41.9 mg) compound 1, means ± SD, n = 5
Structure (SMILES),"14C-cholesterol absorbed, cumulative ([1]; 1 h, rats, means ± SD, n = 5) [% dose]","14C-cholesterol absorbed, cumulative ([1]; 2 h, rats, means ± SD, n = 5) [% dose]","14C-cholesterol absorbed, cumulative ([1]; 3 h, rats, means ± SD, n = 5) [% dose]","14C-cholesterol absorbed, cumulative ([1]; 4 h, rats, means ± SD, n = 5) [% dose]","14C-cholesterol absorbed, cumulative ([1]; 5 h, rats, means ± SD, n = 5) [% dose]","14C-cholesterol absorbed, cumulative ([1]; 6 h, rats, means ± SD, n = 5) [% dose]","14C-cholesterol absorbed, cumulative ([1]; 7 h, rats, means ± SD, n = 5) [% dose]","14C-cholesterol absorbed, cumulative ([1]; 8 h, rats, means ± SD, n = 5) [% dose]","percent cholesterol absorption ([1]; after 8 hours of treatment, 41.9 mg of compound 1, control 37.69%) [%]",total cholesterol absorption compared to control rats ([1]; rats infused for eight hours),"14C-CH absorption [1, 6] [% dose/8 h]",absorption of triolein compared to control rats ([2]; rats infused for eight hours),"Oleic acid absorbed in lymph [2, 6] [μmol/8 h]","abnormalities of intestine and other organs, visual examination ([3]; rats sacrificed at end of infusion)","gross motor or behavioral abnormalities ([3]; rats, 8 h infusion)","dose above which HDL total cholesterol, HDL free cholesterol and HDL cholesterol ester increased [4]",pIC50 [5]
"CC1(C)CCC[C@]2(C)C3=Cc4c(cc(O)c(O)c4Cl)O[C@]3(C)CC[C@@H]12 [Compound 1, (4aS,6aR,12bS)-2H-11-Chloro-1,3,4,4a,5,6,6a,12b-octahydro-4,4,6a,12b-tetramethyl-benzo[a]xanthene-9,10-diol]",0.12 ± 0.04,1.22 ± 0.25,2.70 ± 0.42,4.18 ± 0.92,5.68 ± 1.37,7.32 ± 1.78,9.13 ± 2.41,10.95 ± 3.29,10.95,significantly less,10.95 ± 3.29,significantly less,253 ± 79,No abnormalities were found,no gross motor or behavioral abnormalities,exceeded 250 μM,–
"CC1(C)CCC[C@]2(C)C3=CC4=C(Cl)C(=O)C(=O)C=C4O[C@]3(C)CC[C@@H]12 [Compound 24, (4aS,6aR,12aR,12bS)-2H-11-Chloro-1,3,4,4a,5,6,6a,9,10,12b-decahydro-4,4,6a,12b-tetramethyl-benzo[a]xanthene-9,10-dione]",–,–,–,–,–,–,–,–,–,–,–,–,–,–,–,–,4.51
"C=Cc1ccc(OC(=O)c2ccc(O)c(N=O)c2)cc1.C=Cc1ccc(OC(=O)c2ccc(O)c(N=O)c2)cc1.C=Cc1ccc(OC(=O)c2ccc(O)c(N=O)c2)cc1.[Fe+2] [Ferroverdin A, reference compound]",–,–,–,–,–,–,–,–,–,–,–,–,–,–,–,–,~4.66
